Measurements reported in the NIST ThermoML archive (doi:10.1021/je100100n).

Assay: xn = mol fraction of the nth substance listed
Settings: 101 kPa, Liquid

CC(C)CO [2-methyl-1-propanol] + CCOC(=O)CC(=O)OCC
x2 = 0
Settings	mass density [kg/m3]
288.15 K	805.6
298.15 K	797.916
313.15 K	786.069
328.15 K	773.692

CCCCO [butan-1-ol] + CCOC(=O)CC(=O)OCC
x2 = 0
Settings	mass density [kg/m3]
288.15 K	813.77
298.15 K	806.137
313.15 K	794.488
328.15 K	782.477

CCOC(=O)CC(=O)OCC [diethyl 1,3-propanedioate] + CC(C)CO
mass density [kg/m3]
Settings	288.15 K	298.15 K	313.15 K	328.15 K
x1 = 0.1	843.381	835.034	822.221	808.976
x1 = 0.2	877.394	868.517	854.953	841.015
x1 = 0.3	908.051	898.746	884.583	870.102
x1 = 0.35	922.305	912.816	898.402	885.344
x1 = 0.3999	935.772	926.126	911.47	896.55
x1 = 0.4495	948.602	938.806	923.966	908.867
x1 = 0.5001	961.044	951.116	936.085	920.835
x1 = 0.6001	984.156	973.999	958.66	943.14
x1 = 0.6999	1005.33	995.001	979.414	963.679
x1 = 0.8003	1025.06	1014.57	998.792	982.885
x1 = 0.9	1043.28	1032.67	1016.71	1000.67
x1 = 1	1060.33	1049.6	1033.5	1017.34

CCOC(=O)CC(=O)OCC [diethyl 1,3-propanedioate] + CC(C)O
mass density [kg/m3]
Settings	288.15 K	298.15 K	313.15 K	328.15 K
x1 = 0.1001	836.917	827.809	813.707	798.938
x1 = 0.2	877.015	867.404	852.617	837.294
x1 = 0.3	911.283	901.308	886.063	870.365
x1 = 0.3501	926.715	916.6	901.155	885.344
x1 = 0.4	940.924	930.696	915.119	899.194
x1 = 0.455	955.561	945.23	929.523	913.507
x1 = 0.4999	966.784	956.373	940.573	924.508
x1 = 0.5501	978.638	968.162	952.282	936.171
x1 = 0.5999	989.637	979.111	963.18	947.033
x1 = 0.6499	1000.13	989.567	973.566	957.417
x1 = 0.7001	1010.03	999.417	983.39	967.228
x1 = 0.8	1028.36	1017.69	1001.63	985.453
x1 = 0.8995	1044.94	1034.26	1018.18	1002.01
x1 = 1	1060.33	1049.6	1033.5	1017.34

CCOC(=O)CC(=O)OCC [diethyl 1,3-propanedioate] + CCCCCO
mass density [kg/m3]
Settings	288.15 K	298.15 K	313.15 K	328.15 K
x1 = 0.0999	849.562	841.661	829.624	817.296
x1 = 0.1998	878.757	870.343	857.553	844.519
x1 = 0.2999	906.036	897.187	883.774	870.127
x1 = 0.3498	919.092	910.054	896.347	882.426
x1 = 0.3997	931.801	922.576	908.607	894.428
x1 = 0.4499	944.204	934.797	920.565	906.141
x1 = 0.4999	956.145	946.568	932.101	917.475
x1 = 0.5501	967.903	958.185	943.506	928.648
x1 = 0.599	978.962	969.118	954.233	939.199
x1 = 0.65	990.137	980.151	965.074	949.864
x1 = 0.6997	1000.81	990.684	975.442	960.07
x1 = 0.7997	1021.52	1011.18	995.601	979.945
x1 = 0.9	1041.37	1030.84	1015	999.065
x1 = 1	1060.33	1049.6	1033.5	1017.34

CCOC(=O)CC(=O)OCC [diethyl 1,3-propanedioate] + CCCCO
mass density [kg/m3]
Settings	288.15 K	298.15 K	313.15 K	328.15 K
x1 = 0.1001	850.611	842.336	829.747	816.824
x1 = 0.2002	883.667	874.886	861.524	847.882
x1 = 0.3001	913.38	904.169	890.202	875.956
x1 = 0.35	927.207	917.818	903.569	889.092
x1 = 0.4	940.225	930.667	916.189	901.465
x1 = 0.45	952.775	943.06	928.349	913.434
x1 = 0.5	964.641	954.786	939.89	924.793
x1 = 0.5501	976.114	966.141	951.051	935.788
x1 = 0.5999	986.952	976.853	961.602	946.182
x1 = 0.7	1007.44	997.139	981.612	965.954
x1 = 0.7998	1026.31	1015.86	1000.1	984.244
x1 = 0.9001	1043.95	1033.35	1017.41	1001.38
x1 = 1	1060.33	1049.6	1033.5	1017.34

CCOC(=O)CC(=O)OCC [diethyl 1,3-propanedioate] + CCCO
mass density [kg/m3]
Settings	288.15 K	298.15 K	313.15 K	328.15 K
x1 = 0.1001	854.156	845.431	832.128	818.439
x1 = 0.2	891.858	882.638	868.577	854.173
x1 = 0.2999	923.874	914.254	899.629	884.69
x1 = 0.3501	938.229	928.438	913.567	898.431
x1 = 0.4001	951.433	941.51	926.45	911.123
x1 = 0.4499	963.765	953.71	938.475	922.986
x1 = 0.4999	975.313	965.148	949.737	934.134
x1 = 0.5446	985.016	974.758	959.257	943.524
x1 = 0.5997	996.235	985.888	970.245	954.437
x1 = 0.7003	1014.96	1004.46	988.638	972.67
x1 = 0.7998	1031.53	1020.94	1004.99	988.923
x1 = 0.8997	1046.55	1035.87	1019.84	1003.72
x1 = 1	1060.33	1049.6	1033.5	1017.34
